Patent publication EP0137212A2, “Ointment bases and ointments” (OTSUKA PHARMACEUTICAL CO., LTD., priority 1983, dated 1985)
Values after ≈ are worked out from the molar mass of the structure shown. Where two headings read alike, the source gives them in different places.

What was measured:
Steroid Solubility Test = format: physicochemical
Experimental: This test was conducted to determine the maximum weight of Steroids A and B that could completely dissolve in 1 ml of various solvents at a temperature of 20°C.

[1] = test system: carrageenin-induced paw edema; test: Inhibition of carrageenin-induced paw edema in rats; format: in vivo; settings: 200 mg ointment (Ointment A / Ointment B) rubbed into right hind paw 1 and 2 hours before carrageenin
Experimental: After the ointment was applied to a rat's hind paw, carrageenin serving as a phlogogen was injected into the same hind paw, and the swelling caused by the phlogogen was measured. More specifically stated, the test was carried out as given below, using groups of 5 rats (weighing 175 g). First, the right hind paw of the rat was immersed in water, and the displacement was measured thereby giving the volume of hind paw. One and 2 hours before the injection of the phlogogen (carrageenin), 200 mg of the ointment was elaborately rubbed into the right hind paw of the rat, which was then wrapped in Saran Wrap (trademark) and covered with an elastic strip of adhesive plaster. Thereafter, 0.1 ml of a 1% solution of carrageenin was injected into the right hind paw, and the volume of the hind paw was hourly measured to determine the swelling (%) according to the following equation based on the volume thereof before the injection with the results shown in Fig. 1. [formula] wherein V0 is the volume of the right hind paw before the injection of carrageenin and V1 is the volume thereof after the injection of carrageenin.

Compound | solubility (Steroid Solubility Test; organic solvent or mixture, solvent 1,3-Butanediol, 20°C, read-out: maximum weight that could completely dissolve in 1 ml of solvent) | solubility (Steroid Solubility Test; organic solvent or mixture, solvent 1,3-Dimethyl-2-imidazolidinone, 20°C, read-out: maximum weight that could completely dissolve in 1 ml of solvent) | solubility (Steroid Solubility Test; organic solvent or mixture, solvent Benzyl alcohol, 20°C, read-out: maximum weight that could completely dissolve in 1 ml of solvent) | solubility (Steroid Solubility Test; organic solvent or mixture, solvent Diethyl sebacate, 20°C, read-out: maximum weight that could completely dissolve in 1 ml of solvent) | solubility (Steroid Solubility Test; organic solvent or mixture, solvent Polyethylene glycol 400, 20°C, read-out: maximum weight that could completely dissolve in 1 ml of solvent) | solubility (Steroid Solubility Test; organic solvent or mixture, solvent Propylene glycol, 20°C, read-out: maximum weight that could completely dissolve in 1 ml of solvent) | anti-inflammatory activity (swelling of hind paw, Fig. 1, in words) [1] | solubility (Steroid Solubility Test; 1,3-butanediol, organic solvent or mixture) | solubility (Steroid Solubility Test; 1,3-dimethyl-2-imidazolidinone, organic solvent or mixture) | solubility (Steroid Solubility Test; benzyl alcohol, organic solvent or mixture) | solubility (Steroid Solubility Test; diethyl sebacate, organic solvent or mixture) | solubility (Steroid Solubility Test; polyethylene glycol 400, organic solvent or mixture) | solubility (Steroid Solubility Test; propylene glycol, organic solvent or mixture)
CCOC(=O)O[C@]1(C(=O)OCCl)CC[C@H]2[C@@H]3CCC4=CC(=O)C=C[C@]4(C)[C@H]3[C@@H](O)C[C@@]21C [Steroid A, chloromethyl 17α-ethoxycarbonyloxy-11β-hydroxyandrosta-1,4-diene-3-one-17β-carboxylate] | 1950 µg/mL (≈ 4.18 mM) | 357000 µg/mL (≈ 765 mM) | > 25000 µg/mL | 6850 µg/mL (≈ 14.7 mM) | 13300 µg/mL (≈ 28.5 mM) | 2700 µg/mL (≈ 5.78 mM) | exhibit an anti-inflammatory activity |  |  |  |  |  | 
CCOC(=O)O[C@]1(C(=O)OCCl)[C@H](C)C[C@H]2[C@@H]3CCC4=CC(=O)C=C[C@]4(C)[C@@]3(F)[C@@H](O)C[C@@]21C [Steroid B, chloromethyl 17a-ethoxycarbonyloxy-9a-fluoro-11β-hydroxy-16α-methylandrosta-1,4-diene-3-one-17β-carboxylate] |  |  |  |  |  |  | exhibit an anti-inflammatory activity | 50 µg/mL (≈ 0.1 mM) | 52100 µg/mL (≈ 104 mM) | 920 µg/mL (≈ 1.84 mM) | 280 µg/mL (≈ 0.561 mM) | 450 µg/mL (≈ 0.902 mM) | 100 µg/mL (≈ 0.2 mM)
